Experimental data from ChEMBL document CHEMBL1145379 (J Med Chem, 2007).

Experiments:
[1] = target: Coagulation factor X (Homo sapiens, UniProt P00742); experiment: Inhibition of human F10a; conditions: read-out: Ki app
[2] = test system: Plasma; experiment: Anticoagulant potency in human plasma assessed as concentration for doubling of prothrombin time; format: functional
[3] = target: Prothrombin (Homo sapiens, UniProt P00734); experiment: Inhibition of human F2a; conditions: read-out: Ki app
[4] = Distribution coefficient, log D at pH 7.4; format: physicochemical; conditions: octanol/water
[5] = Volume of distribution at steady state in Beagle dog at 1 mg/kg, iv; format: ADME, organism-based, Canis lupus familiaris; set-up: dose 1 mg/kg, route intravenous; conditions: in vivo, read-out: Vss
[6] = Bioavailability in Beagle dog at 10 mg/kg, po normalized to 1 mg/kg, iv; format: ADME, organism-based, Canis lupus familiaris; conditions: in vivo
[7] = Half life in Beagle dog at 1 mg/kg, iv; format: ADME, organism-based, Canis lupus familiaris; set-up: dose 1 mg/kg, route intravenous; conditions: in vivo
[8] = Clearance in Beagle dog at 1 mg/kg, iv; format: ADME, organism-based, Canis lupus familiaris; set-up: dose 1 mg/kg, route intravenous; conditions: in vivo
[9] = Cmax in Beagle dog at 10 mg/kg, po; format: ADME, organism-based, Canis lupus familiaris; set-up: dose 10 mg/kg, route oral; conditions: in vivo

Chain of Coagulation factor X (P00742 41-179 limits assumed): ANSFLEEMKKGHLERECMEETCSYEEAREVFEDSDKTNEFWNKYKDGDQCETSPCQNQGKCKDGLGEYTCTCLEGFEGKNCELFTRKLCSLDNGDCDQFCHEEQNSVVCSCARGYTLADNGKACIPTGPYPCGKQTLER
Chain of Coagulation factor X (P00742 235-488 limits assumed): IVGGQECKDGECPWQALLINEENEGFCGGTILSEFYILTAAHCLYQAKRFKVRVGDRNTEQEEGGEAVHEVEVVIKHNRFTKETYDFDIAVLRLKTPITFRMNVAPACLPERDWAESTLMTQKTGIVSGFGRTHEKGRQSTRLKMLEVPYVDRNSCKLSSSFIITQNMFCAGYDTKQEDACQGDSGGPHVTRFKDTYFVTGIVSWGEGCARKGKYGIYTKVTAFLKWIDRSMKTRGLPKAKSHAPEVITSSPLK

SMILES | Ki [1] [nM] | Activity [2] [µM] | Ki [3] [nM] | also measured
COc1cc(Cl)cc(C(=O)Nc2ccc(Cl)cn2)c1NC(=O)c1scc(CN(C)CCCN(C)C)c1Cl | 0.024 | 0.24 | 300 | 
COc1cc(Cl)cc(C(=O)Nc2ccc(Cl)cn2)c1NC(=O)c1scc(CN2CCC(O)CC2)c1Cl | 2.2 | 3.2 | 770 | 
COc1cc(Cl)cc(C(=O)Nc2ccc(Cl)cn2)c1NC(=O)c1scc(CN(C)C(=O)NCCC(=O)O)c1Cl | 0.022 | 7 | 630 | 
CCN(C)Cc1csc(C(=O)Nc2c(OC)cc(Cl)cc2C(=O)Nc2ccc(Cl)cn2)c1Cl | 0.22 | 1.4 | 1700 | 
COc1cc(Cl)cc(C(=O)Nc2ccc(Cl)cn2)c1NC(=O)c1scc(Cn2ccnc2N)c1Cl | 0.006 | 0.77 | 3500 | 
CCNCc1csc(C(=O)Nc2c(OC)cc(Cl)cc2C(=O)Nc2ccc(Cl)cn2)c1Cl | 0.4 | 2.2 | 2600 | 
COc1cc(Cl)cc(C(=O)Nc2ccc(Cl)cn2)c1NC(=O)c1scc(CN2CCOCC2)c1Cl | 1.4 | 4.9 | 1400 | 
COc1cc(Cl)cc(C(=O)Nc2ccc(Cl)cn2)c1NC(=O)c1scc(CN(C)C(=N)N)c1Cl | ≤ 0.01 | 0.4 | 630 | 
CN1CCN(Cc2csc(C(=O)Nc3ccc(Cl)cc3C(=O)Nc3ccc(Cl)cn3)c2Cl)CC1 | 0.36 | 6.9 | 680 | logD [4]: 3.11
CCNc1nccn1Cc1csc(C(=O)Nc2c(OC)cc(Cl)cc2C(=O)Nc2ccc(Cl)cn2)c1Cl | 0.005 | 1.8 | 1100 | 
COc1cc(Cl)cc(C(=O)Nc2ccc(Cl)cn2)c1NC(=O)c1scc(Cn2ccnc2)c1Cl | 0.022 | 2 | 510 | 
COc1cc(Cl)cc(C(=O)Nc2ccc(Cl)cn2)c1NC(=O)c1scc(Cn2ccnc2NC(C)C)c1Cl | 0.008 | 2.3 | 1200 | 
CCN(CC)Cc1csc(C(=O)Nc2c(OC)cc(Cl)cc2C(=O)Nc2ccc(Cl)cn2)c1Cl | 0.32 | 2.4 | 1500 | 
COc1cc(Cl)cc(C(=O)Nc2ccc(Cl)cn2)c1NC(=O)c1scc(CN(C)C2=NCCS2)c1Cl | 0.024 | 1.8 | 100 | 
COc1cc(Cl)cc(C(=O)Nc2ccc(Cl)cn2)c1NC(=O)c1scc(CN(CC(F)(F)F)C2=NCCO2)c1Cl | 2.2 | 28 | > 5000 | 
COc1cc(Cl)cc(C(=O)Nc2ccc(Cl)cn2)c1NC(=O)c1scc(CN(C)C(C)=N)c1Cl | ≤ 0.01 | 0.25 | 920 | 
COc1cc(Cl)cc(C(=O)Nc2ccc(Cl)cn2)c1NC(=O)c1scc(CN2CCNC2=N)c1Cl | ≤ 0.01 | 0.27 | 1500 | 
COc1cc(Cl)cc(C(=O)Nc2ccc(Cl)cn2)c1NC(=O)c1scc(CN2CCN(C)CC2)c1Cl | 0.16 | 1.6 | 1500 | logD [4]: 2.75
COc1cc(Cl)cc(C(=O)Nc2ccc(Cl)cn2)c1NC(=O)c1scc(CN(C)CC(C)O)c1Cl (centres undefined) | 0.4 | 1.5 | 2100 | 
COc1cc(Cl)cc(C(=O)Nc2ccc(Cl)cn2)c1NC(=O)c1scc(CN(C)C(=O)NCCO)c1Cl | 0.05 | 4.1 | 360 | 
COc1cc(Cl)cc(C(=O)Nc2ccc(Cl)cn2)c1NC(=O)c1scc(CN(C)CCCO)c1Cl | 0.18 | 1.5 | 1100 | 
CCNC(=O)N(C)Cc1csc(C(=O)Nc2c(OC)cc(Cl)cc2C(=O)Nc2ccc(Cl)cn2)c1Cl | 0.02 | 5.8 | 450 | 
COc1cc(Cl)cc(C(=O)Nc2ccc(Cl)cn2)c1NC(=O)c1scc(CN(C)CC(O)CO)c1Cl (centres undefined) | 0.26 | 3.2 | 1200 | 
COc1cc(Cl)cc(C(=O)Nc2ccc(Cl)cn2)c1NC(=O)c1scc(CN(C)C(N)=O)c1Cl | 0.026 | 2.6 | 340 | 
COc1cc(Cl)cc(C(=O)Nc2ccc(Cl)cn2)c1NC(=O)c1scc(CN(C)CCN2CCCC2)c1Cl | 0.019 | 0.24 | 190 | 
COc1cc(Cl)cc(C(=O)Nc2ccc(Cl)cn2)c1NC(=O)c1scc(CN2CCN=C2C)c1Cl | ≤ 0.01 | 0.32 | 3300 | 

SMILES | Ki [1] [nM] | Activity [2] [µM] | Ki [3] [nM] | also measured
COc1cc(Cl)cc(C(=O)Nc2ccc(Cl)cn2)c1NC(=O)c1scc(CN(C)c2ncco2)c1Cl | 0.059 | 4.2 | 60 | 
COc1cc(Cl)cc(C(=O)Nc2ccc(Cl)cn2)c1NC(=O)c1scc(CN(C)CCO)c1Cl | 0.24 | 1.6 | 1400 | Vd [5]: 4.4 L/kg; bioavailability [6]: > 100%; half-life [7]: 2.1 h; clearance [8]: 27 mL/min/kg; Cmax [9]: 1200 ng/mL
CCN(Cc1csc(C(=O)Nc2c(OC)cc(Cl)cc2C(=O)Nc2ccc(Cl)cn2)c1Cl)C1=NC(C)CO1 (centres undefined) | 0.031 | 3.8 | 580 | 
CN1CCN(Cc2csc(C(=O)Nc3ccc(Cl)cc3C(=O)Nc3ccc(Cl)cc3)c2Cl)CC1 | 0.76 | 12 | 840 | logD [4]: 2.96
COc1cc(Cl)cc(C(=O)Nc2ccc(Cl)cn2)c1NC(=O)c1scc(CN2CCSC2=N)c1Cl | ≤ 0.01 | 1.4 | 2600 | 
COc1cc(Cl)cc(C(=O)Nc2ccc(Cl)cn2)c1NC(=O)c1scc(CN(C)C2=NC(=O)CO2)c1Cl | 0.026 | 2.2 | 90 | 
COCCN(Cc1csc(C(=O)Nc2c(OC)cc(Cl)cc2C(=O)Nc2ccc(Cl)cn2)c1Cl)C1=NCCO1 | 0.26 | 1.1 | 2000 | 
COc1cc(Cl)cc(C(=O)Nc2ccc(Cl)cn2)c1NC(=O)c1scc(CN2CC(=O)NC2=N)c1Cl | 0.034 | 3.3 | 340 | 
COc1cc(Cl)cc(C(=O)Nc2ccc(Cl)cn2)c1NC(=O)c1scc(CN(C)C2=NCCCO2)c1Cl | 0.012 | 0.22 | 160 | 
COc1cc(Cl)cc(C(=O)Nc2ccc(Cl)cn2)c1NC(=O)c1scc(CN(C)C2=NCCC2)c1Cl | 0.004 | 0.4 | 970 | 
COc1cc(Cl)cc(C(=O)Nc2ccc(Cl)cn2)c1NC(=O)c1scc(CN(C)c2ncc[nH]2)c1Cl | 0.02 | 1.8 | 860 | 
COc1cc(Cl)cc(C(=O)Nc2ccc(Cl)cn2)c1NC(=O)c1scc(CN2CCOC2=N)c1Cl | ≤ 0.01 | 0.26 | 1100 | 
COc1cc(Cl)cc(C(=O)Nc2ccc(Cl)cn2)c1NC(=O)c1scc(Cn2ccnc2C)c1Cl | ≤ 0.01 | 1.4 | 440 | 
CCN(Cc1csc(C(=O)Nc2c(OC)cc(Cl)cc2C(=O)Nc2ccc(Cl)cn2)c1Cl)C1=NCCO1 | 0.012 | 0.57 | 470 | 
COc1cc(Cl)cc(C(=O)Nc2ccc(Cl)cn2)c1NC(=O)c1scc(CN(C)CC(C)(C)O)c1Cl | 0.71 | 5.3 | 1100 | 
COc1cc(Cl)cc(C(=O)Nc2ccc(Cl)cn2)c1NC(=O)c1scc(CN(C)S(C)(=O)=O)c1Cl | 0.045 | 2.2 | 340 | 
COc1cc(Cl)cc(C(=O)Nc2ccc(Cl)cn2)c1NC(=O)c1scc(CN(C)C2=NCC(C)O2)c1Cl (centres undefined) | 0.12 | 1.2 | 410 | 
COc1cc(Cl)cc(C(=O)Nc2ccc(Cl)cn2)c1NC(=O)c1scc(CNC(C)C)c1Cl | 1.4 |  | 5400 | 
COc1cc(Cl)cc(C(=O)Nc2ccc(Cl)cn2)c1NC(=O)c1scc(CN)c1Cl | 1 | 4.2 | > 5000 | 
COc1cc(Cl)cc(C(=O)Nc2ccc(Cl)cn2)c1NC(=O)c1scc(CN2C=NCC2)c1Cl | 0.004 | 0.26 | 3300 | 
COc1cc(Cl)cc(C(=O)Nc2ccc(Cl)cc2)c1NC(=O)c1scc(CN2CCN(C)CC2)c1Cl | 0.43 | 4.2 | 1300 | 
COc1cc(Cl)cc(C(=O)Nc2ccc(Cl)cn2)c1NC(=O)c1scc(CN(C)C(=O)NCCN2CCCC2)c1Cl | 0.036 | 1.1 | 140 | 
COc1cc(Cl)cc(C(=O)Nc2ccc(Cl)cn2)c1NC(=O)c1scc(CN2CCCC2)c1Cl | 0.52 | 1.6 | 1400 | 
COc1cc(Cl)cc(C(=O)Nc2ccc(Cl)cn2)c1NC(=O)c1scc(CN(C2=NCCO2)C(C)(C)C)c1Cl | 0.12 |  | 1700 | 
COc1cc(Cl)cc(C(=O)Nc2ccc(Cl)cn2)c1NC(=O)c1scc(CN2CCN=C2SC)c1Cl | 0.004 | 0.53 | 2200 | 
